Experimental data taken from PMC6829536 (International Journal of Molecular Sciences, 2019).

Experiments:
WT CaFADS = target: T1, WT CaFADS (Corynebacterium ammoniagenes, UniProt Q59263); conditions: saturating ATP, 20 mM PIPES, 0.8 mM MgCl2, pH 7.0, 25 °C, cited from earlier work
T1 construct: made in house; host or cells: Escherichia coli

L98K CaFADS = target: T2, L98K CaFADS (Corynebacterium ammoniagenes, UniProt Q59263, L98K); assay: biochemical; format: biochemical
T2 construct: made in house; host or cells: E. coli BL21(DE3)
Protocol: (§1) Reactions were initiated by the addition of ~20 nM of enzyme. After 1 min incubation at 25 °C, the reactions were stopped by boiling the mixtures for 5 min. The composition of flavins in the supernatant was determined using an Alliance HPLC system (Waters, Milford, MA, USA) equipped with a 2707 autosampler and a HSST3 column (4.6 × 150 mm, 3.5 µm, Waters) preceded by a pre-column (4.6 × 20 mm, 3.5 µm, Waters). The chromatography was developed at 1 mL/min with a 6 min isocratic program of methanol 40% (v/v) in 5 mM ammonium acetate (pH 6.0). Detection of flavins was carried out using a 2475 Multi λ fluorescence detector (Waters), excitation wavelength of 470 nm and emission wavelength of 530 nm. […] The flavinic products of the reaction were identified by their retention times and quantified through their corresponding standard curves obtained under the same conditions. Controls containing free flavins in the absence of the enzyme were treated similarly to reaction samples to discard flavin degradation during RFK activity determination. […] In case of inhibition, the experimental data were fitted to a model describing the substrate inhibition of a bi-substrate mechanism. In these situations, errors in apparent Km and kcat (^appKm and ^appkcat) increased with the inhibition constant (Ki) value getting closer to Km^S. Reaction mixtures were evaluated in triplicates, and final results are expressed as the standard error of the fitted value (value ± SE).

P58W CaFADS = target: T3, P58W CaFADS (Corynebacterium ammoniagenes, UniProt Q59263, P58W); assay: biochemical; format: biochemical
T3 construct: made in house; host or cells: E. coli BL21(DE3)
Protocol: as §1

P56A/P58A CaFADS = target: T4, P56A/P58A CaFADS (Corynebacterium ammoniagenes, UniProt Q59263, P56A/P58A); assay: biochemical; format: biochemical
T4 construct: made in house; host or cells: E. coli BL21(DE3)
Protocol: as §1

L98A CaFADS = target: T5, L98A CaFADS (Corynebacterium ammoniagenes, UniProt Q59263, L98A); assay: biochemical; format: biochemical
T5 construct: made in house; host or cells: E. coli BL21(DE3)
Protocol: as §1

P56W CaFADS = target: T6, P56W CaFADS (Corynebacterium ammoniagenes, UniProt Q59263, P56W); assay: biochemical; format: biochemical
T6 construct: made in house; host or cells: E. coli BL21(DE3)
Protocol: as §1

L98W CaFADS = target: T7, L98W CaFADS (Corynebacterium ammoniagenes, UniProt Q59263, L98W); assay: biochemical; format: biochemical
T7 construct: made in house; host or cells: E. coli BL21(DE3)
Protocol: as §1

CaFADS variants = assay: Qualitative detection of RFK, FMNAT and FADpp activities by TLC; format: biochemical, Corynebacterium ammoniagenes; conditions: all variants, 200 nM enzyme, 50 μM flavin, 0.2 mM ATP, 10 mM MgCl2, pH 7.0, 30 min and 2 h
Protocol: RFK and FMNAT activities were qualitatively assayed by the incubation of enzymes with substrates and separation of flavins (substrates and products) from reaction mixtures using TLC on Silica Gel SIL-G-25 plates (20 × 20 cm, thickness 0.25 mm) as previously described. […] Reactions were stopped by boiling the preparations for 5 min. Flavin spots were visualized under UV light.

Q: For `Cc1cc2nc3c(=O)[nH]c(=O)nc-3n(C[C@H](O)[C@H](O)[C@H](O)CO)c2cc1C` [RF, Riboflavin], which Ki (WT CaFADS; RF substrate inhibition) is on record?
A: 4.9 ± 3.9 µM

Q: What about the Km (WT CaFADS; RF varied, apparent value, read-out: Km^RF) of the same molecule?
A: 12 ± 3 µM

Q: And the kcat (WT CaFADS; RF varied, apparent value)?
A: 6.8 ± 3.33 s⁻¹

Q: And the Ki (L98K CaFADS)?
A: 41 ± 13 µM

Q: What about the kcat (L98K CaFADS; L98K CaFADS, RF varied, saturating ATP, apparent value, 20 mM PIPES, 0.8 mM MgCl2, pH 7.0, 25 °C) of the same molecule?
A: 4.13 ± 0.567 s⁻¹

Q: And the Ki (P58W CaFADS)?
A: 39 ± 21 µM

Q: What about the kcat (P58W CaFADS; P58W CaFADS, RF varied, saturating ATP, apparent value, 20 mM PIPES, 0.8 mM MgCl2, pH 7.0, 25 °C) of the same molecule?
A: 1.63 ± 0.317 s⁻¹

Q: What about the Ki (P56A/P58A CaFADS) of the same molecule?
A: 54 ± 29 µM

Q: What about the kcat (P56A/P58A CaFADS; P56A/P58A CaFADS, RF varied, saturating ATP, apparent value, 20 mM PIPES, 0.8 mM MgCl2, pH 7.0, 25 °C) of the same molecule?
A: 1.3 ± 0.2 s⁻¹

Q: What about the Ki (L98A CaFADS) of the same molecule?
A: 32 ± 15 µM

Q: And the kcat (L98A CaFADS; L98A CaFADS, RF varied, saturating ATP, apparent value, 20 mM PIPES, 0.8 mM MgCl2, pH 7.0, 25 °C)?
A: 2.3 ± 0.433 s⁻¹

Q: And the Ki (P56W CaFADS)?
A: 6.5 ± 1.9 µM

Q: What about the “decrease of Km^RF relative to WT” value (P56W CaFADS; P56W CaFADS vs WT) of the same molecule?
A: up to 30 fold

Q: What about the kcat (P56W CaFADS; P56W CaFADS, RF varied, saturating ATP, apparent value, 20 mM PIPES, 0.8 mM MgCl2, pH 7.0, 25 °C) of the same molecule?
A: 0.75 ± 0.083 s⁻¹

Q: What about the Ki (L98W CaFADS) of the same molecule?
A: 46 ± 20 µM

Q: What about the kcat (L98W CaFADS; L98W CaFADS, RF varied, saturating ATP, apparent value, 20 mM PIPES, 0.8 mM MgCl2, pH 7.0, 25 °C) of the same molecule?
A: 2.33 ± 0.35 s⁻¹

Q: And the “RFK activity (transformation of RF), qualitative” value (CaFADS variants)?
A: All variants kept the RFK activity
